Experimental data as given in patent publication US20070066572A1, “Neuroprotection by positively-charged nitroxides” (priority 2005, published 2007).

Legend:
hSOD1-G93A mice = test: In vivo attenuation of ALS symptoms in transgenic G93A-SOD1 mice; conditions: 40 mg/kg or about 1 mg/mouse/day in drinking water
Text: Animal model: A transgenic mouse line overexpressing mutant G93A-SOD1 gene (TgN(SOD1-G93A)1Gur, herein called hSOD1-G93A, a high expression mouse line) and the mating pairs were purchased from Jackson Laboratory (Bar Harbor, Me.). Mice were housed and bred as described previously (Liu R, et al., “Enhanced oxygen radical production in a transgenic mouse model of familial amyotrophic lateral sclerosis,” Ann. Neurol. 44:763-70 (1998)) and in accordance with the University of North Dakota Animal Care and Use Committee guidelines.
At age 40-50 days, transgenic littermates (wild-type normal mice and hSOD1-G93A mice) were divided into three groups (n=10) and administered with vehicle alone (regular drinking water), Mito-Tempol (40 mg/kg or about 1 mg/mouse/day) or Tempol (40 mg/kg or about 1 mg/mouse/day), respectively. The onset of disease was defined as the day when a sharp decrease in muscle strength was detected. The initial symptoms of hind leg paralysis was considered as the disease progression as well.

[1] = test system: Bovine aortic endothelial cells (BAECs); test: Glu/GO-induced caspase-3 activity (apoptosis) in BAECs; assay type: cell-based
Procedure: Cell line: Bovine aortic endothelial cells (BAECs; American Type Culture Collection) were grown to confluence in DMEM (Calbiochem; San Diego, Calif.) containing 10% fetal bovine serum (FBS; Invitrogen; Carlsbad, Calif.) insulin (10 μg/ml; Invitrogen), transferrin (5 μg/ml; Invitrogen), glutamine (4 mM; Sigma-Aldrich), penicillin (100 units/ml; Sigma-Aldrich) and streptomycin (100 μg/ml; Sigma-Aldrich) and were incubated at 37° C. in a humidified atmosphere of 5% CO2 and 95% air. The BAECs were used between passages four and twelve, as described by Balla G, et al., “Ferritin: a cytoprotective antioxidant strategem of endothelium,” J. Biol. Chem. 267:18148-18153 (1992). On the day of treatment, the medium was replaced with DMEM containing 2% FBS.
Glucose/Glucose Oxidase (Glu/GO): GO was obtained from Sigma Aldrich (Milwaukee, Wis.); 13-hydroperoxyoctadecadienoic acid (13-HpODE, a lipoxygenase-catalyzed oxidative metabolite of linolieic acid) and β-hydroxyoctadecadienoic acid (13-HODE, […]) were obtained from Cayman Chemical Co. (Ann Arbor, Mich.); 2′,7′-dichlorodihydrofluorescein diacetate (DCFH-DA) was obtained from Molecular Probes (Eugene, Oreg.); N-carbobenzoxyl-L-leucinyl-L-norleucinal (MG-132) was obtained from Biomol (Plymouth Meeting, Pa.); and clastolactacystin-α-lactone (Lac) was obtained from Sigma Aldrich.
BAECs were incubated with Glu/GO (20 μM), 13-HpODE (25 μM) or 13-HODE (25 μM) for different time periods (0, 2, 4, 8 or 16 hours).
Caspase-3 Activity: After treatment with Glu-GO and antioxidants, cells were washed twice with Dulbecco's phosphate-buffered saline (DPBS) and lysed with cell lysis buffer. Caspase-3 activity was measured with acetyl Asp-Glu-Val-Asp 7-amido-4-methylcoumarin (Ac-DEVD-AFC), as described in a kit from Sigma Aldrich. Caspase-3 hydrolyzes Ac-DEVD-AFC to release a fluorescent moiety, 7-amino-4-methylcoumarin (AMC). Briefly, treated cells were suspended in 100 μl of lysis buffer and passed through a 24-guage needle 10 times to ensure complete lysis. The resulting lysate was centrifuged at 4° C. at 10,000 rmp. […]

## CC1(C)CC(OCCCCC[P+](c2ccccc2)(c2ccccc2)c2ccccc2)CC(C)(C)N1[O].[Br-] [Mito-Tempol]
hSOD1-G93A mice; FIG. 2
  disease progression: delayed disease progression
hSOD1-G93A mice; FIG. 3
  lifespan: increased the lifespan
hSOD1-G93A mice; FIG. 4
  running activity as measured by Rotarod (motor function): promoted the running activity
[1]; BAECs pretreated at 0.5 and 1 μM, Glu/GO eight hours, FIG. 5
  Glu/GO-mediated caspase-3 activation: greatly inhibited
[1]; BAECs, Glu/GO, FIG. 5
  potency in inhibiting peroxide-induced apoptosis relative to Tempol: more potent than Tempol
[1]; Mito-Tempol prepared by the modified method
  endothelial oxidative damage and apoptosis: inhibited endothelial oxidative damage and apoptosis
